Experimental data published in PMC9138545, “Incorporation of Oxidized Phenylalanine Derivatives into Insulin Signaling Relevant Proteins May Link Oxidative Stress to Signaling Conditions Underlying Chronic Insulin Resistance” (Biomedicines, 2022).

What was measured:
Akt (Ser473) = assay: Western blot, activating phosphorylation of Akt (Ser473); format: cell-based; conditions: n = 4–8; for insulin-induced Akt phosphorylation: 400 nmol/L insulin, adipocytes, HEK cells, podocytes, macrophages; for basal Akt phosphorylation: without insulin, cells grown on o- or m-Tyr medium
Procedure: (§1) Early passages of mouse embryo fibroblast (3T3-L1) (ATCC, Manassas, VA, US) were cultured in Dulbecco’s modified Eagle medium (DMEM, Sigma Aldrich, Budapest, Hungary, CAT number: D6046; Invitrogen, Waltham, MA, USA, CAT number: 41966-029) supplemented with 100 U/mL penicillin, 0.1 mg/mL streptomycin (Gibco, Budapest, Hungary, CAT number: 15070-063) and 10% heat-inactivated Fetal Bovine Serum (FBS, Gibco, CAT number: 16170-078), supplemented with 398 nM p-, m-, or o-Tyr (equimolar to the original p-Tyr content of the medium) purchased from Sigma (CAT number: para-Tyr: T8566, m-Tyr: T3629, o-Tyr: 93851). Media contained 25 or 5 mmol/L glucose (experiment dependent) pyruvate and L-glutamine. Cells were grown at 37 °C and 5% CO2. Adipocyte differentiation was achieved by DMEM supplemented with 10% FBS (Gibco, Csertex, Budapest, Hungary, CAT number: 10106-169) (FBS) and a […] insulin (Sigma Aldrich, Budapest, Hungary, CAT number: I 9278), […] isobuthylmethylxanthine (Sigma Aldrich, Budapest, Hungary, CAT number: I 5879), and 250 nmol/L dexamethasone (Sigma Aldrich, Budapest, Hungary, CAT number: 861871) containing cocktail. From day 4 onward, cultures were maintained in DMEM containing 1.5 μg/mL insulin and 10% FBS with a medium change every other day until experimental treatments were started. After 90% of the cell population reached the adipocyte phenotype, prior to all treatments, cells were incubated overnight in serum-deprived medium. Experimental treatment was performed in serum-deprived medium containing 200 or 400 nmol/L insulin, for 5 min.
(§2) The conditionally immortalized human podocyte cell line (provided by Moin Saleem, University of Bristol, UK) was cultured in RPMI1640 medium (R8756, Sigma Aldrich, Budapest, Hungary) supplemented with 10% heat-inactivated FBS (16170-078, Gibco, Budapest, Hungary), insulin-transferrin-selenium supplement (41400-045, Gibco), 100 U/mL penicillin, 0.1 mg/mL streptomycin (P4333, Sigma), and […] (equimolar to the original p-Tyr content of the medium) para-, meta-, or ortho-Tyr. The cells were grown at 33 °C 5% CO2, and when they reached 40–60% confluency they were transferred to 37 °C to differentiate. Following the thermoswitching, cells were kept on RPMI1640 medium containing 2% FBS, antibiotics, and different tyrosines. Before every treatment, cells were incubated in serum-deprived medium overnight.
HEK-293 immortalized cell line (ATCC, Manassas, VA, USA) of epithelial morphology and the J774A.1 mouse BALB/C monocyte-macrophage cell lines (91051511-1VL, Sigma Aldrich, Budapest, Hungary) were cultured in Petri dishes with a medium composed of Dulbecco’s modified Eagle’s medium (DMEM, Sigma Aldrich, Budapest, Hungary, CAT number: D6046, Invitrogen, CAT number: 41966-029), with a 10% heat-inactivated FBS supplementation (16170-078, Gibco), insulin-transferrin-selenium supplement (41400-045, Gibco, Budapest, Hungary,), 100 U/mL penicillin and 0.1 mg/mL streptomycin (P4333, Sigma) and 398 nM para (5 and 25 mmol/L), meta-, or ortho-Tyr (T8566, T3629, 93851, Sigma). Before treatment, cells were incubated in serum-deprived medium overnight as well. […]
The samples of lysates were vortexed and centrifuged (10 min, 13,000 rpm, at 4 °C). Protein content of the samples was determined by the Lowry method using bovine serum albumin as a standard. […]

total proteins of cells = assay: HPLC of protein-bound tyrosines (incorporation into cellular proteins); format: cell-based; conditions: cells grown on o-Tyr or m-Tyr; n = 5–10
Procedure: as §1
as §2, with “overnight. […]” for “overnight.”
The total protein-bound cellular tyrosine content was measured by adding 200 μL of distilled water to the samples, followed by freezing overnight at −70 °C to achieve cell lysis. […]

erythroblasts = conditions: ref [43]; cited from earlier work
Description: (§3) Furthermore, m- and o-Tyr may have a role beyond being markers ROS attack. […] For example, we have described that patients on renal replacement therapy show a connection between plasma levels of o-Tyr and erythropoietin (EPO) resistance. In a further set of experiments, m- and o-Tyr in ...

concomitant tumor growth = conditions: ref [42]; cited from earlier work
Description: as §3

plants = conditions: ref [41]; cited from earlier work
Description: as §3

| SMILES | insulin-induced Akt phosphorylation (Akt (Ser473)) | basal Akt phosphorylation (Akt (Ser473)) | protein-bound o-Tyr/p-Tyr and m-Tyr/p-Tyr ratio (total proteins of cells) | protein-bound p-Tyr/Phe ratio (total proteins of cells) | EPO-dependent proliferation of erythroblasts (erythroblasts) | inhibition of concomitant tumor growth (concomitant tumor growth) | natural herbicide, plant growth (plants) |
| --- | --- | --- | --- | --- | --- | --- | --- |
| NC(Cc1ccccc1O)C(=O)O (stereo not drawn) [o-Tyr, ortho-tyrosine] | could not be further raised by insulin treatment | either unchanged or higher | increased | either a decrease or remained unchanged | inhibited the EPO-dependent proliferation of erythroblasts, in a time- and dose-dependent manner | – | – |
| N[C@@H](Cc1cccc(O)c1)C(=O)O [m-Tyr, meta-tyrosine] | could not be further raised by insulin treatment | either unchanged or higher | increased | either a decrease or remained unchanged | inhibited the EPO-dependent proliferation of erythroblasts, in a time- and dose-dependent manner | involved in the inhibition of concomitant tumor growth | act as a natural herbicide and inhibit the growth of plants |
